Assay results taken from paper PMC6695598, “The Development of Tetrazole Derivatives as Protein Arginine Methyltransferase I (PRMT I) Inhibitors” (International Journal of Molecular Sciences, 2019).
“Also recorded” adds a separate entry of the source.

Experiments:
[1] = biological target: T1, PRMT1 (Homo sapiens, UniProt Q99873); assay: Mechanism of Action (MOA) study, competition with SAM and peptide on PRMT1; type: biochemical; conditions: IC50 at varied SAM (0.5-60× Km) or peptide (0.5-100× Km) concentrations
Text: Both PRMT1 and PRMT6 are Type I PRMTs, and their structures share the high degree similarity. […] Based on the crystal structure, it can be predicated that MS023 should be a competitive inhibitor against the peptide. […] There are potential explanations for the current contradictory results. First, the main binding effects of the substrate were from the outside regions of arginine-binding site.
The method is consistent with the procedure described above.

[2] = WST-8/CCK8 cell viability assay; type: cell-based; conditions: human, MDA-MB-231 breast cancer cells, read-out: IC50 against MDA-MB-231 (cytotoxicity)
Procedure: The MDA-MB-231 cell line used in this study was obtained from the American Type Culture Collection (ATCC, Rockville, MD, USA), and was grown in dulbecco’s modified eagle medium (DMEM, Gibco, Thermo Fisher Scientific, Waltham, MA, USA) supplemented with 10% fetal bovine serum (FBS) (Gibco). The cells were incubated at 37 °C and 5% CO2.
The cytotoxicity was determined by the CCK8 assay. Briefly, MDA-MB-231 cells (5 × 10^3 cells/well) were seeded in 96-well plates in DMEM containing 10% FBS and grew for 24 h. The exponentially growing cells were incubated with various concentrations of compounds for 48h/72h in serum free DMEM at 37 °C (5% CO2, 95% humidity). CCK8 reagent (10 μL) was added to each well and incubated for further 2 h, and then the absorbance was analyzed in a multiwell-plate reader (BioTek ELx800) at 450 nm.

[3] = biological target: T1, PRMT1; assay: radioactive PRMT1 methylation inhibition assay ([3H]-SAM, biotinylated histone H4 peptide); type: biochemical
Procedure: A series of 1,5-substituded tetrazole derivatives were synthesized to investigate the structure-activity relationship (SAR) of PRMT1 inhibitors (Table 1). […] The chemical modification of these compounds is mainly focused on the substituted benzene ring. The initial screening of these compounds was carried out using the radioactive PRMT1 methylation inhibition assay, which measured the amount of methyl groups that transferred from [^3H]-SAM to a biotinylated histone H4 peptide (ac- […](Biotin)). […] In the second step, the Group II compounds were designed and synthesized by extending the ethylenediamine side chain to propylenediamine.
(§1) The enzyme inhibitory activities were measured by the radioisotope assay in ShangHai Chempartner Co. Ltd. according to the standard protocol. The similar procedure was recently performed in the publication The radioactive methylation assay was performed in 1× assay buffer (modified Tris buffer) system containing enzyme (PRMT1/5), peptide and [^3H]-SAM solution and compounds on the assay plate. […] Afterwards, the reaction was stopped with addition of 5 μL cold SAM solution to per well. Then, 25 μL of volume per well was transferred to Flashplate from assay plate and incubated for 1 h minimum at room temperature. Finally, the Flashplate was washed with dH2O and 0.1% Tween-20 three times and then reading plate in Mi crobeta using program ^3H-Flashplate. The data was analyzed in GraphPad Prism 5 to obtain IC50 values.

[4] = biological target: PRMT5 (Homo sapiens, UniProt O14744); assay: radioactive methylation assay, PRMT5 selectivity; type: biochemical
Procedure: as §1

[5] = tested on: MDA-MB-231 cells; assay: Western blotting of PRMT1 and Wnt pathway markers; type: cell-based
Procedure: MDA-MB-231 cells were maintained on 6-well plates at the appropriate density. […] Total cell lysates were separated by SDS-PAGE and transferred onto nitrocellulose membranes. The blots were blocked with 5% nonfat milk for 30 min and the target proteins were probed with appropriate specific antibody overnight at 4 °C, respectively. The blots were washed with TBST for three times and then incubated with anti-rabbit secondary antibody (HRP conjugated) for 1 h. After another three washes, bands were detected in a ChemiScope3400 imaging system using ECL substrate (Millipore, Burlington, MS, USA). Primary antibodies used were as follows: anti-PRMT1 (Cell Signaling Technology no.2449, Danvers, MA, USA), anti-ADMA (Cell Signaling Technology no.13522), anti-SDMA (Cell Signaling Technology no.13222), anti-GAPDH (Cell Signaling Technology no. 5174), anti-H4R3me2a Abcam, ab9231), Wnt3a (Cell Signaling Technology no. 2721s), anti-DDAH (Abcam, ab9231, Cambridge, UK), Wnt5a/b (Cell Signaling Technology no. 2530s), β-catenin (Cell Signaling Technology no. 8480s), MMP9 (Cell Signaling Technology no.1366s). The results were obtained from multiple membranes. No significant differences were observed among loading controls. Therefore, we presented the representative loading control blot image in the figure.

[6] = tested on: PRMT6; design: method as in PMID 26598975; conditions: cited from earlier work
[7] = MDA-MB-231, 48 h, top concentration 200 μM

T1 sequence (Q99873 whole entry): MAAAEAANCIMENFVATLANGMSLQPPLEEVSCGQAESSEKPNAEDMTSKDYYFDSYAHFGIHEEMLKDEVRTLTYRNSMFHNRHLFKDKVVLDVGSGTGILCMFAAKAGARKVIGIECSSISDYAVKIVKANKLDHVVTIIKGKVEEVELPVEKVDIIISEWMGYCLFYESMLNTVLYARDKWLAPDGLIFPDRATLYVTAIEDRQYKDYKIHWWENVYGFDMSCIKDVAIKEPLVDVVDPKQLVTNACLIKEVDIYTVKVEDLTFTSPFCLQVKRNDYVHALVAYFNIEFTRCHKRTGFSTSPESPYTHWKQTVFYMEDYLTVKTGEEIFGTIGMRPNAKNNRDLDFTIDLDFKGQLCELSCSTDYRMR
Sequence of PRMT5 (O14744 whole entry, species assumed): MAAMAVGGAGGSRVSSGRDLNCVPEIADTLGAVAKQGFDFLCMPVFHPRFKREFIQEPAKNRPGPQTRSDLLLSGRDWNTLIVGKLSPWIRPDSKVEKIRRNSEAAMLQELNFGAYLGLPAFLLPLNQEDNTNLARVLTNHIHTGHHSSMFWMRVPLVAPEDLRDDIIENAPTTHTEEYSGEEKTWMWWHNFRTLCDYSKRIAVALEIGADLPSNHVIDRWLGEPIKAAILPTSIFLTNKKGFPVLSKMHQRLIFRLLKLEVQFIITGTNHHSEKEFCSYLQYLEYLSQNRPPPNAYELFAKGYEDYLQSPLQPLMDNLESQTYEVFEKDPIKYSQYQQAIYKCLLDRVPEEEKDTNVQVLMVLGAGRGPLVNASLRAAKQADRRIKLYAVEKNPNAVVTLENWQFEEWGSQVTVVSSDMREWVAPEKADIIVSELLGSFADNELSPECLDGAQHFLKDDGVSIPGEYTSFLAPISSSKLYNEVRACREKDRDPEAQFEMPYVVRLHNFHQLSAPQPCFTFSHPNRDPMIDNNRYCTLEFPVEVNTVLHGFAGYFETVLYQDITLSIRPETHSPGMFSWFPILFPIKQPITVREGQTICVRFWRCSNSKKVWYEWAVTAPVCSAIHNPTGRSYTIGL
Sequence of PRMT5 (Q9BQA1 whole entry partner, species assumed): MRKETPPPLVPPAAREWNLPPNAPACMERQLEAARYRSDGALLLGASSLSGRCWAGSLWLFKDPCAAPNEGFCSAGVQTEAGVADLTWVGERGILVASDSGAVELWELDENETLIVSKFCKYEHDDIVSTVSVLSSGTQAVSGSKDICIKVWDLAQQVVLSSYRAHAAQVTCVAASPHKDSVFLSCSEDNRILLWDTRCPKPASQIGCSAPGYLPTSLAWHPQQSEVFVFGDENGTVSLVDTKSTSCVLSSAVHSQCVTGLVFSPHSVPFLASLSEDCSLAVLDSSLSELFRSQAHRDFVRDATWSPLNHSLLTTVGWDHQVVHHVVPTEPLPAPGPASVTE

| SMILES | mode of inhibition with respect to SAM and peptide substrate [1] | IC50 at 48 h ([2]; 48 h) | IC50 at 72 h ([2]; 72 h) | IC50 [3] | inhibition at 10 µM ([3]; 10 μM compound, initial screening) | IC50 [4] | global level of ADMA [5, 7] | global level of H4R3me2as [5, 7] | global level of SDMA [5, 7] | level of DDAH [5, 7] | level of Wnt3a [5, 7] | level of Wnt5a [5, 7] | level of β-catenin [5, 7] | cell damage during the western blotting experiment ([5]; MDA-MB-231, top concentration 200 μM) | mode of inhibition with respect to SAM and peptide substrate [6] |
| --- | --- | --- | --- | --- | --- | --- | --- | --- | --- | --- | --- | --- | --- | --- | --- |
| CNCCN(C)Cc1nnnn1-c1ccc(OC(C)C)cc1.Cl [9a, N,N’-Dimethyl-N’-(1-(4-isopropoxyphenyl)-1H-tetrazol-5-yl-methyl)ethylenediamine hydrochloride] | noncompetitive inhibitor for either the cofactor SAM or peptide substrate; also recorded: non-competitive pattern with respect to either SAM or substrate arginine; also recorded: did not compete with either SAM or peptides | > 500 µM | 541 ± 6.5 µM | 3.5 µM | > 47% | > 100 µM | significantly decreased in a concentration-dependent manner; also recorded: significantly decreased in concentration-dependent manners | decreased the global level of H4R3me2as in a concentration-dependent manner; also recorded: significantly decreased in concentration-dependent manners | not significantly affected; also recorded: not significantly changed | significantly decreased in a concentration-dependent manner; also recorded: significantly decreased in concentration-dependent manners | significantly decreased in concentration-dependent manners | did not change significantly; also recorded: not changed | significantly decreased in concentration-dependent manners | no obvious cell damage was observed |  |
| CC(C)Oc1ccc(-c2c[nH]cc2CN(C)CCN)cc1 [MS023] |  |  |  |  |  |  |  |  |  |  |  |  |  |  | noncompetitive with either SAM or peptide substrate |
